Test results taken from patent publication US20250108038A1 (priority 2023, published 2025).
Read-outs that look alike come from different tables or passages of the source.

Legend:
[1] = tested on: human red blood cells; experiment: Hemolysis study in human blood; type: cell-based; conditions: 60 min, 37° C.; for % RBC lysis (hemolytic potential): test articles 25, 50, 100 μM, amphotericin B 1, 10, 30, 100 μM
Procedure: FIG. 4A. […] Compound I-19 in human blood. Red blood cells were isolated from whole blood and resuspended in PBS. […] (final concentrations 25, 50, and 100 μM) and the mixtures were incubated at 37° C. for 60 min. After the incubation, the samples were centrifuged and the absorbance of 100 μL of supernatant was read at 410 nm. % RBC lysis is expressed relative to 100% lysis control. Values represent mean+SEM of n=3 separate experiments.
FIG. 4B. Hemolytic Potential of Compound I-4 in human blood. Red blood cells were isolated from whole blood and resuspended in PBS. 190 μL of diluted RBC suspension and 10 μL of Compound I-4 solutions were mixed at 0 min. (final concentrations 25, 50, and 100 μM) and the mixtures were incubated at 37° C. for 60 min. After the incubation, the samples were centrifuged and the absorbance of 100 μL of supernatant was read at 410 nm. % RBC lysis is expressed relative to 100% lysis control. Values represent mean+SEM of n=3 separate experiments.
FIG. 4C. Hemolytic Potential of Amphotericin B in human blood (positive assay control). Red blood cells were isolated from whole blood and resuspended in PBS. 190 μL of diluted RBC suspension and 10 μl of amphotericin B solutions were mixed at 0 min. (final concentrations 1, 10, 30, and 100 μM) and the mixtures were incubated at 37° C. for 60 min. After the incubation, the samples were centrifuged and the absorbance of 100 μL of supernatant was read at 410 nm. % RBC lysis is expressed relative to 100% lysis control. Values represent mean+SEM of n=3 separate experiments.
To a clear 96-well V-bottom polystyrene plate, the test articles (10 μL) and the diluted RBCs (190 μL) from human or rat blood were mixed for final concentrations of 25, 50, and 100 μM. The reaction mixture was incubated at 37° C. for 60 min. Following the exposure period, the plates were centrifuged. After centrifugation, 70 μL of supernatant (without disturbing the pellet) was transferred to a clean and clear polystyrene flat bottomed 96-well plate and the absorbance of the sample at a single wavelength was measured using a BioTech Synergy H1 Plate Reader at a wavelength of 410 nm. The positive control for this assay was amphotericin B test at concentrations of 1, 10, 30, and 100 μM.

[2] = type: physicochemical
Procedure: All conditions and stock preparation procedures were identical to the conditions applied in the transporter assays (Table 74, Table 75 and Table 76). […] A follow-up assay was carried out at 7 concentrations in order to correct the nominal concentrations for the IC50 calculations (Table 78). Where NSB was observed (>20% loss) the assay concentrations were corrected according to the result of the respective NSB assay.
All conditions and stock preparation procedures were identical to the conditions applied in the transporter assays.
Samples (1.5×C0 or Total) were immediately taken after mixing to determine the total initial concentrations. The assay mixes were pre-incubated for 15 minutes at 37° C. and at 32° C. in case of BCRP and MDR1. After the pre-incubation step the assay mixes were 1.5-times diluted with (pre-warmed) transport buffer reaching the final nominal concentrations of the compounds in the VT assay and then were further incubated at 37° C. or 32° C. for BCRP and MDR1 and sampled in the end of incubation (timc).
The aqueous buffer was mixed, and samples (C0 or Total) were immediately taken for determining the total initial concentrations. The helper plate was pre-warmed for 15 minutes at 37° C. The pre-warmed aliquots of the aqueous buffers with the test articles (50 μL) were transferred from the helper plate into the wells of another 96-well plate (assay plate) and incubated for 30 minutes (pre-incubation) then removed from the wells. Thereafter the same wells of the assay plate were dosed again with other aliquots of the aqueous buffers with the test articles and were further incubated in the assay plate at 37° C. and finally sampled (tinc).

[3] = BCRP, BSEP and MDR1 VT inhibition assay setup
[4] = HBSS (pH 7.4) and KH (pH 8.0) uptake assay buffers
[5] = HBSS (pH 7.4) uptake buffer, 37° C., nominal 10.00 μM
[6] = HBSS (pH 7.4) uptake buffer, 37° C., nominal 100.00 μM
[7] = HBSS (pH 7.4), 37° C., nominal 0.412 μM, IC50 determination
[8] = HBSS (pH 7.4), 37° C., nominal 1.235 μM, IC50 determination
[9] = HBSS (pH 7.4), 37° C., nominal 3.704 μM, IC50 determination
[10] = HBSS (pH 7.4), 37° C., nominal 11.11 μM, IC50 determination
[11] = HBSS (pH 7.4), 37° C., nominal 33.33 μM, IC50 determination
[12] = HBSS (pH 7.4), 37° C., nominal 100.00 μM, IC50 determination
[13] = KH (pH 8.0) uptake buffer, 37° C., nominal 10.000 μM
[14] = KH (pH 8.0) uptake buffer, 37° C., nominal 100.000 μM
[15] = KH (pH 8.0), 37° C., nominal 0.412 μM, IC50 determination
[16] = KH (pH 8.0), 37° C., nominal 1.235 μM, IC50 determination
[17] = KH (pH 8.0), 37° C., nominal 3.704 μM, IC50 determination
[18] = KH (pH 8.0), 37° C., nominal 11.11 μM, IC50 determination
[19] = KH (pH 8.0), 37° C., nominal 33.33 μM, IC50 determination
[20] = KH (pH 8.0), 37° C., nominal 100.00 μM, IC50 determination
[21] = Transport buffer (pH 7.4) for BSEP VT inhibition assay, 37° C., nominal C0 10.00 μM
[22] = Transport buffer (pH 7.4) for BSEP VT inhibition assay, 37° C., nominal C0 100.00 μM
[23] = Transport buffer with sucrose (pH 7.4) for BCRP and MDR1 VT inhibition assay, 32° C., nominal C0 10.00 μM
[24] = Transport buffer with sucrose (pH 7.4) for BCRP and MDR1 VT inhibition assay, 32° C., nominal C0 100.00 μM
[25] = HBSS (pH 7.4) uptake buffer, 37° C., nominal 3.00 μM
[26] = HBSS (pH 7.4) uptake buffer, 37° C., nominal 30.00 μM
[27] = KH (pH 8.0) uptake buffer, 37° C., nominal 3.00 μM
[28] = KH (pH 8.0) uptake buffer, 37° C., nominal 30.00 μM
[29] = Transport buffer with sucrose (pH 7.4), BCRP and MDR1 VT, 32° C., nominal C0 5.00 μM
[30] = Transport buffer with sucrose (pH 7.4), BCRP and MDR1 VT, 32° C., nominal C0 50.00 μM

SMILES: COCCOC1(c2ccc(Cl)cc2)c2ccccc2C2=NCCN21 (centres unmarked) [Compound I-4]
- EC50 (% RBC lysis) [1]: outside the concentration range tested
- % RBC lysis (hemolytic potential) [1]: no detectable hemolysis

SMILES: Clc1ccc(C2(OCC3OCCO3)c3ccccc3C3=NCCN32)cc1 (centres unmarked) [Compound I-19]
- EC50 (% RBC lysis) [1]: outside the concentration range tested
- % RBC lysis (hemolytic potential) [1]: no detectable hemolysis
- Non-specific binding (NSB) [2, 3]: did not show any loss due to plastic binding
- Non-specific binding (NSB) [2, 4]: more than 20%
- Concentration after incubation [2, 5]: 5.98 ± 0.13 µM
- Loss of Compound I-19 during the NSB assay [2, 5]: 34%
- Measured dosing concentrations [2, 5]: 8.99 ± 0.60 µM
- Concentration after incubation [2, 6]: 59.43 ± 5.59 µM
- Loss of Compound I-19 during the NSB assay [2, 6]: 23%
- Measured dosing concentrations [2, 6]: 76.99 ± 6.62 µM
- Concentration after incubation [2, 7]: 0.35 ± 0.03 µM
- Loss of Compound I-19 during the NSB assay [2, 7]: 39%
- Measured dosing concentrations [2, 7]: 0.57 ± 0.14 µM
- Concentration after incubation [2, 8]: 0.83 ± 0.07 µM
- Loss of Compound I-19 during the NSB assay [2, 8]: 30%
- Measured dosing concentrations [2, 8]: 1.18 ± 0.09 µM
- Concentration after incubation [2, 9]: 2.49 ± 0.18 µM
- Loss of Compound I-19 during the NSB assay [2, 9]: 49%
- Measured dosing concentrations [2, 9]: 4.84 ± 0.73 µM
- Concentration after incubation [2, 10]: 6.86 ± 0.20 µM
- Loss of Compound I-19 during the NSB assay [2, 10]: 29%
- Measured dosing concentrations [2, 10]: 9.59 ± 1.50 µM
- Concentration after incubation [2, 11]: 17.44 ± 3.56 µM
- Loss of Compound I-19 during the NSB assay [2, 11]: 27%
- Measured dosing concentrations [2, 11]: 23.77 ± 2.59 µM
- Concentration after incubation [2, 12]: 34.49 ± 3.00 µM
- Loss of Compound I-19 during the NSB assay [2, 12]: 12%
- Measured dosing concentrations [2, 12]: 38.99 ± 3.97 µM
- Concentration after incubation [2, 13]: 5.54 ± 0.13 µM
- Loss of Compound I-19 during the NSB assay [2, 13]: 36%
- Measured dosing concentrations [2, 13]: 8.68 ± 0.34 µM
- Concentration after incubation [2, 14]: 20.35 ± 1.94 µM
- Loss of Compound I-19 during the NSB assay [2, 14]: 33%
- Measured dosing concentrations [2, 14]: 30.52 ± 1.33 µM
- Concentration after incubation [2, 15]: 0.27 ± 0.02 µM
- Loss of Compound I-19 during the NSB assay [2, 15]: 39%
- Measured dosing concentrations [2, 15]: 0.44 ± 0.10 µM
- Concentration after incubation [2, 16]: 0.73 ± 0.04 µM
- Loss of Compound I-19 during the NSB assay [2, 16]: 34%
- Measured dosing concentrations [2, 16]: 1.10 ± 0.10 µM
- Concentration after incubation [2, 17]: 1.68 ± 0.26 µM
- Loss of Compound I-19 during the NSB assay [2, 17]: 36%
- Measured dosing concentrations [2, 17]: 2.63 ± 1.34 µM
- Concentration after incubation [2, 18]: 4.05 ± 0.49 µM
- Loss of Compound I-19 during the NSB assay [2, 18]: 45%
- Measured dosing concentrations [2, 18]: 7.32 ± 3.86 µM
- Concentration after incubation [2, 19]: 12.58 ± 1.30 µM
- Loss of Compound I-19 during the NSB assay [2, 19]: 39%
- Measured dosing concentrations [2, 19]: 20.72 ± 2.88 µM
- Concentration after incubation [2, 20]: 34.06 ± 2.30 µM
- Loss of Compound I-19 during the NSB assay [2, 20]: 25%
- Measured dosing concentrations [2, 20]: 45.32 ± 9.94 µM
- Concentration after incubation (tinc) [2, 21]: 12.92 ± 0.21 µM
- Loss of Compound I-19 during the NSB assay [2, 21]: −4%
- Measured dosing concentrations ([…] C0) [2, 21]: 18.55 ± 0.06 µM
- Concentration after incubation (tinc) [2, 22]: 122.52 ± 9.60 µM
- Loss of Compound I-19 during the NSB assay [2, 22]: −13%
- Measured dosing concentrations ([…] C0) [2, 22]: 162.83 ± 11.51 µM
- Concentration after incubation (tinc) [2, 23]: 13.10 ± 1.26 µM
- Loss of Compound I-19 during the NSB assay [2, 23]: −11%
- Measured dosing concentrations ([…] C0) [2, 23]: 17.68 ± 0.42 µM
- Concentration after incubation (tinc) [2, 24]: 124.55 ± 5.96 µM
- Loss of Compound I-19 during the NSB assay [2, 24]: −12%
- Measured dosing concentrations ([…] C0) [2, 24]: 167.14 ± 11.84 µM
- Concentration after incubation ([2]; pH 7.4): 0.15 ± 0.01 µM
- Loss of Compound I-19 during the NSB assay ([2]; pH 7.4): 33%
- Measured dosing concentrations ([2]; pH 7.4): 0.23 ± 0.02 µM
- Concentration after incubation ([2]; pH 8): 0.10 ± 0.01 µM
- Loss of Compound I-19 during the NSB assay ([2]; pH 8): 41%
- Measured dosing concentrations ([2]; pH 8): 0.17 ± 0.02 µM

SMILES: OC1(c2ccc(Cl)cc2)c2ccccc2C2=NCCN21 (centres unmarked) [Compound A, 5-(4-chlorophenyl)-2,3-dihydroimidazo[1,2-b]isoindol-5-ol, reference compound]
- Non-specific binding (NSB) [2, 3]: did not show any NSB
- Non-specific binding (NSB) [2, 4]: did not show any NSB
- Concentration after incubation [2, 25]: 1.85 ± 0.13 µM
- Loss of Compound A during the NSB assay [2, 25]: 14%
- Measured dosing concentrations [2, 25]: 2.16 ± 0.05 µM
- Concentration after incubation [2, 26]: 17.66 ± 0.35 µM
- Loss of Compound A during the NSB assay [2, 26]: 15%
- Measured dosing concentrations [2, 26]: 20.71 ± 0.67 µM
- Concentration after incubation [2, 27]: 1.86 ± 0.06 µM
- Loss of Compound A during the NSB assay [2, 27]: 20%
- Measured dosing concentrations [2, 27]: 2.31 ± 0.11 µM
- Concentration after incubation [2, 28]: 18.15 ± 0.42 µM
- Loss of Compound A during the NSB assay [2, 28]: 18%
- Measured dosing concentrations [2, 28]: 22.13 ± 0.61 µM
- Concentration after incubation (tinc) [2, 29]: 6.27 ± 0.69 µM
- Loss of Compound A during the NSB assay [2, 29]: 3%
- Measured dosing concentrations ([…] C0) [2, 29]: 9.65 ± 1.52 µM
- Concentration after incubation (tinc) [2, 30]: 55.92 ± 2.44 µM
- Loss of Compound A during the NSB assay [2, 30]: −2%
- Measured dosing concentrations ([…] C0) [2, 30]: 82.20 ± 3.76 µM
